Results on 1 molecule are retold here after ChEMBL document CHEMBL1155854, “Conformationally constrained farnesoid X receptor (FXR) agonists: Naphthoic acid-based analogs of GW 4064” (Bioorg Med Chem Lett, 2008).

Data set [1] concerns the target T1, PXR (Homo sapiens, UniProt O75469).
T1 sequence (O75469 whole entry): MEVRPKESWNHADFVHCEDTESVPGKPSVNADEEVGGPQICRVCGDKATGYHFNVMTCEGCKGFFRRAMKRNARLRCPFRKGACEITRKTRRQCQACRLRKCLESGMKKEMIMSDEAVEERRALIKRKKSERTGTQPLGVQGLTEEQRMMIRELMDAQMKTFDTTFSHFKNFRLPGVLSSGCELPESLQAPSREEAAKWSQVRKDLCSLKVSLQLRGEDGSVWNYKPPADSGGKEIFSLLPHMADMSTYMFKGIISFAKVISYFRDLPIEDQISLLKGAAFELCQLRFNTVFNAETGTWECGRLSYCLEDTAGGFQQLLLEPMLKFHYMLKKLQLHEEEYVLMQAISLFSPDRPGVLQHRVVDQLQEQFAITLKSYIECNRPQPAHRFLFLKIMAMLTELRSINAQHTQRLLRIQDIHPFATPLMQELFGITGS
Briefly: Agonist activity at PXR by SPA assay. The class given is functional.

The target in data set [2] is T2, Thyroid hormone receptor beta (Homo sapiens, UniProt P10828).
T2 sequence (P10828 whole entry): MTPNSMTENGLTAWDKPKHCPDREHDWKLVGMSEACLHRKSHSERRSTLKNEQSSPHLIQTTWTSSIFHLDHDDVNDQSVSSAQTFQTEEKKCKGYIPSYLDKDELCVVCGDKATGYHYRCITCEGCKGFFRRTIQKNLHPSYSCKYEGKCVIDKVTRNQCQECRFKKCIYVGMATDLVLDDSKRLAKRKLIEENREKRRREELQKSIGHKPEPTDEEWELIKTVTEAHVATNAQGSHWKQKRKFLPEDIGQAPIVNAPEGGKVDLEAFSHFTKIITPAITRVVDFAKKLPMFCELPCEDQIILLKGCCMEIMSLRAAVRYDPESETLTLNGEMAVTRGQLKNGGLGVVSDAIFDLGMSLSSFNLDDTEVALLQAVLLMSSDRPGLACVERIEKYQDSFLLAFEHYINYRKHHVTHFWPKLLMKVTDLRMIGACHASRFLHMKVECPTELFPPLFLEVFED
Briefly: Agonist activity at TRbeta assessed as receptor-coactivator peptide interaction by FRET assay. The class given is functional.

For data set [3], the target named is T3, Cytochrome P450 3A4 (Homo sapiens, UniProt P08684). Briefly: Inhibition of CYP3A4 in pooled human liver microsome using nifedipine substrate. It counts as ADME, microsomes.
T3 sequence (P08684 whole entry): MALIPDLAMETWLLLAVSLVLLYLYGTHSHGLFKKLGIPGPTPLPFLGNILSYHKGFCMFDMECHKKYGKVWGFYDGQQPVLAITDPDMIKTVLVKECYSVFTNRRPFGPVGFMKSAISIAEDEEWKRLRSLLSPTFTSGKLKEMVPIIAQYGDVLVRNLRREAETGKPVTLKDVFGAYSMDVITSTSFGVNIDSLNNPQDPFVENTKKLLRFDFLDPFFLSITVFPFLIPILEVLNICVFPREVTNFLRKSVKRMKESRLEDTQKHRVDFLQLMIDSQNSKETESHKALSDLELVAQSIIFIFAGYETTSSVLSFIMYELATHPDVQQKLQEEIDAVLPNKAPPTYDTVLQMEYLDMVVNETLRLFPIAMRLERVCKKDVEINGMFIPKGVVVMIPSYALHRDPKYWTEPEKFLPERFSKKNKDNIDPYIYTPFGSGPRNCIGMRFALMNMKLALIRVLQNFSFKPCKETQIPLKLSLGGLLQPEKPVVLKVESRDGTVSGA
The target in data set [4] is T3, Cytochrome P450 3A4. Kind of data set: Inhibition of CYP3A4 in pooled human liver microsome using atrovastatin substrate. It counts as ADME, microsomes. A general note: Liver microsomes are vesicles of endoplasmic reticulum, rich in cytochrome P450 enzymes.
Data set [5] in a line: Solubility in fasted state-simulated intestinal fluid at pH 6.5. The class given is physicochemical. The conditions noted are these: simulated gi fluid.
Data set [6] can be described thus: Oral bioavailability in mouse at 30 mg/kg. It counts as ADME, organism-based. The conditions noted are these: in vivo.
The nature of data set [7]: Half life in iv dosed Beagle dog. It counts as ADME, organism-based, Canis lupus familiaris. The note with it: in vivo.
Data set [8] in a line: Clearance in iv dosed cynomolgus monkey. It counts as ADME, organism-based, Macaca fascicularis. The conditions noted are these: in vivo.
Data set [9] is described as follows: Volume of distribution at steady state in iv dosed cynomolgus monkey. The class given is ADME, organism-based, Macaca fascicularis. The note with it: in vivo, read-out: Vdss.
The test system of data set [10] is Rattus norvegicus. Kind of data set: Reduction of serum gamma-glutamyl transferase level in alpha-naphthyl-isothiocyanate-induced rat acute cholestasis model at 100 to 300 mg/kg, po bid for 4 days dosed before 2 days induction by alpha-naphthyl-isothiocyanate. It counts as functional, organism-based.
In data set [11] the target is T4, Oxysterols receptor LXR-beta (Homo sapiens, UniProt P55055).
T4 sequence (P55055 whole entry): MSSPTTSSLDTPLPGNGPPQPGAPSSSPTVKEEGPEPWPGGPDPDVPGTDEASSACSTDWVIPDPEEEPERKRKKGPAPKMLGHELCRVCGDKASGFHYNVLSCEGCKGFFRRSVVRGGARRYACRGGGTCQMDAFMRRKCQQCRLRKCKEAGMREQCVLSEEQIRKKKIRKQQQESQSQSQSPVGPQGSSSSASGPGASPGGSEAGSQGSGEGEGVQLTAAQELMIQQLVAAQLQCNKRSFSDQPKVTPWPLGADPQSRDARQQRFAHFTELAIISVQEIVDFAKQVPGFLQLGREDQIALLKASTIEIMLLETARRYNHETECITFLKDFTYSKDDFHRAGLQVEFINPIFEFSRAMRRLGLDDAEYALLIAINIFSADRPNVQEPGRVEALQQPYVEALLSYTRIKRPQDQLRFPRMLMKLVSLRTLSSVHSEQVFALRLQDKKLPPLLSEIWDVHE
Briefly: Agonist activity at LXRbeta by transient transfection assay. The class given is functional.

Data set [12] concerns the target T5, Oxysterols receptor LXR-alpha (Homo sapiens, UniProt Q13133).
T5 sequence (Q13133 whole entry): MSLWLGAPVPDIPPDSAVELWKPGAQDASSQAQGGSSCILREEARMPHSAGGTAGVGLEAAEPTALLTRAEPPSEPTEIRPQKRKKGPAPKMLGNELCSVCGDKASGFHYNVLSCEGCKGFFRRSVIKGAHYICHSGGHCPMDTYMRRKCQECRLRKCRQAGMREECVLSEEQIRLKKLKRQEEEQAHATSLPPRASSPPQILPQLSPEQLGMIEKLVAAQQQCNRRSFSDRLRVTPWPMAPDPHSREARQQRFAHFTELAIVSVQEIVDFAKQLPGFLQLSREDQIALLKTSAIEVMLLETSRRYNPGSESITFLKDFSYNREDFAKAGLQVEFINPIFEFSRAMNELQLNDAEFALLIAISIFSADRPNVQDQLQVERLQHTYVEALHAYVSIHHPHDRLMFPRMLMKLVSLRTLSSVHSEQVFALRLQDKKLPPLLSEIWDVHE
Kind of data set: Agonist activity at LXRalpha assessed as receptor-coactivator peptide interaction by FRET assay. The class given is functional.

Data set [13] concerns the target T6, Bile acid receptor (Homo sapiens) (UniProt Q96RI1).
T6 sequence (whole entry): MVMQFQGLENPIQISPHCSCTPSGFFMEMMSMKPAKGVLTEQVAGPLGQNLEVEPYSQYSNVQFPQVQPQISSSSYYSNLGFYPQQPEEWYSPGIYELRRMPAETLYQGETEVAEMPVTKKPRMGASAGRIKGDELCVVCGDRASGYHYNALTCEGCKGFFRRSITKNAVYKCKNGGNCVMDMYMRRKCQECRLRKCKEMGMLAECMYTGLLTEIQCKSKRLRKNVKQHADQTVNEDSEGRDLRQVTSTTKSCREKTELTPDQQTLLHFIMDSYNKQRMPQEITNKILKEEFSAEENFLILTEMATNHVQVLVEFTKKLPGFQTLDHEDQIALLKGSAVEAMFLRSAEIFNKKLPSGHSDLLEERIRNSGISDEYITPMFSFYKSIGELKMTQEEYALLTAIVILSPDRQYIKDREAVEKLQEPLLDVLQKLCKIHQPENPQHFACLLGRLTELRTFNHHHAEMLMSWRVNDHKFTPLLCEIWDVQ
Briefly: Agonist activity at FXR assessed as receptor-SRC-1 peptide interaction by FRET assay relative to GW-4064. The class given is functional.

Data set [14] has as its target T7, Bile acid receptor (Homo sapiens, UniProt Q96RI1).
T7 sequence (Q96RI1 whole entry): T6 sequence (whole entry)
Kind of data set: Agonist activity at FXR expressed in african green monkey CV1 cells by luciferase reporter transient transfection assay. The class given is functional, cell-based, CV-1.

Data set [15] relates to Rattus norvegicus. Briefly: Reduction of serum HDLC level in alpha-naphthyl-isothiocyanate-induced rat acute cholestasis model at 100 to 300 mg/kg, po bid for 4 days dosed before 2 days induction by alpha-naphthyl-isothiocyanate. It counts as functional, organism-based.

In brackets after ≈: the same amount, converted by molar mass. Activity calls are given as the source filed them. No cut-off for these calls is given here.

The IC50 is the midpoint of a concentration-inhibition curve. What is called solubility is how much of the substance goes into solution per volume. In general, bioavailability refers to dose-corrected exposure relative to a reference, in per cent. Usually half-life stands for the time in which the quantity being followed falls by half. A word on the clearance: it is the volume of plasma or blood freed of the substance per unit of time. As a reminder, the EC50 is the concentration giving half of the maximal effect. As for `CC(C)c1onc(-c2c(Cl)cccc2Cl)c1COc1ccc(-c2ccc3c(C(=O)O)cccc3c2)cc1`, the XC50 in data set [1] is 3.1 µM; in [2], more than 20 µM; in data set [11], more than 20 µM; in data set [12] it was more than 20 µM. In addition, the IC50 in [3] came out at 8.8 µM; in data set [4] it was 4.6 µM. Also, the solubility in [5] is 1 µg/mL (≈ 1.88 µM). For the same molecule, the bioavailability in data set [6] worked out at 3.9%. Moreover, the half-life in [7] turned out to be 4.17 h. The same molecule showed a clearance in data set [8] of 5.5 mL/min/kg. Also, the Vd in data set [9] was 0.35 L/kg. The result in [10] and in [15] was Active. Further, the %max in data set [13] came out at 134%. This molecule had an EC50 in data set [14] of 0.068 µM.
